Values of other authors, collected in patent US20200392379A1, “TRANSFER FILM, METHOD FOR MANUFACTURING LAMINATE, LAMINATE, CAPACITIVE INPUT DEVICE, AND IMAGE DISPLAY DEVICE” (FUJIFILM Corporation, priority 2018, published 2020).

Structure (SMILES) | pKa of conjugate acid
c1ccc2[nH]nnc2c1 [1,2,3-Benzotriazole] | 1.17
Sc1nnc(S)s1 [1,3,4-Thiadiazole-2,5-dithiol] | −2.11
O=C(O)CC(C(=O)O)n1nnc2ccccc21 (centres unmarked) [1-(1′,2′-Dicarboxyethyl)benzotriazole] | 0.09
O=C(O)CC(Cn1nnc2ccccc21)C(=O)O (centres unmarked) [1-(2,3-Dicarboxypropyl)benzotriazole] | 1.21
Cn1nnnc1S [1-Methyl-5-mercaptotetrazole] | −2.98
CCCCC(CC)CN(CC(CC)CCCC)Cn1nnc2ccccc21 (centres unmarked) [1-[N,N-bis(2-ethylhexyl)aminomethyl]benzotriazole] | 6.68
Cc1cc(Cn2nnc3ccccc32)c(O)c(Cn2nnc3ccccc32)c1 [2,6-Bis[(1H-benzotriazol-1-yl)methyl]-4-methylphenol] | 1.49
CSc1nnc(N)s1 [2-Amino-5-methylthio-1,3,4-thiadiazole] | 2.12
Sc1nncs1 [2-Mercapto-1,3,4-thiadiazole] | −1.09
CSc1nnc(S)s1 [2-Mercapto-5-methylthio-1,3,4-thiadiazole] | −1.32
Sc1nc2ccccc2[nH]1 [2-Mercaptobenzimidazole] | 2.38
Cc1ncc[nH]1 [2-Methylimidazole] | 8.15
CSc1nc(N)n[nH]1 [3-Amino-5-methylthio-1H-1,2,4-triazole] | 2.99
Sc1nc[nH]n1 [3-Mercapto-1,2,4-triazole] | 1.30
Nc1cnns1 [5-Amino-1,2,3-thiadiazole] | 0.34
Nc1nnn[nH]1 [5-Amino-1H-tetrazole] | 1.29
Nc1ccc2[nH]c(S)nc2c1 [5-Amino-2-mercaptobenzimidazole] | 3.02
Sc1nnnn1-c1ccccc1 [5-Mercapto-1-phenyl-1H-tetrazole] | −4.56
c1ccc(-c2nnn[nH]2)cc1 [5-Phenyl-1H-tetrazole] | −2.88
c1ccc2[nH]cnc2c1 [Benzimidazole] | 5.67
